Data reported in patent publication US9249118B2, “Purifying crude furan 2,5-dicarboxylic acid by hydrogenation” (Eastman Chemical Company, priority 2012, dated 2016).

Test: solubility of FDCA in water at different temperatures (FIG. 1)
Type: physicochemical
Conditions: ambient pressure, as the water temperature increases beyond 130° C. (FIG. 1)
Experimental: FIG. 1 depicts the solubility of FDCA in water at different temperatures.
Suitable dissolution temperatures are those effective to dissolve the desired amount of FDCA solids into solution. The hydrogenation solvent composition may be added at (by pre-heating) or heated in the dissolution zone to a temperature of at least 120° C. under a pressure and time sufficient to allow for at least 80 wt. % dissolution, although to reduce the time required for dissolution, it is desirable that the hydrogenation solvent composition temperature is at least 130° C., or at least 135° C., or at least 140° C., or at least 150° C.

solubility of FDCA in water: increases dramatically
SMILES: O=C(O)c1ccc(C(=O)O)o1 [FDCA, Furan 2,5-dicarboxylic acid]
